Converted amounts (≈) assume the structure as drawn.
Columns and labels:
[1] = test system: human skin tissue; settings: human, 20 %, pH 7.4
[2] = in vivo; settings: rat
Protocol: The acute toxicity of the prodrug compounds and parent compounds are measured by LD50 of rat.

[3] = Solubility in water / aqueous solubility of HPPs and parent drugs; settings: water
[4] = Plasma levels after transdermal administration to hairless mice; type: in vivo; settings: for t, time to peak plasma level after parent compound: parent compound administered (time when taken orally); for Peak plasma concentration after parent compound: parent compound administered, hairless mice
Protocol: Tested compounds (20% solution or suspension in 1 mL isopropanol) are administered transdermally to the skin of intact hairless mice. The plasma levels of the parent compounds are determined by HPLC.

[5] = test system: mice; assay: Analgesic activity, acetic acid writhing; type: in vivo; settings: 30 min before acetic acid; for inhibition at 50 mg/kg / inhibition at 100 mg/kg: Mus musculus, po, read-out: % (rate of writhing inhibition)
Protocol: The prodrug compounds are administered either transdermally or orally. The parent compounds are administered orally. The number of writhing that occurred when mice are administered the acetic acid solution are counted, and the rate of inhibition based on the control group which was not pretreated with any test compounds is calculated. […] The A group is the control group.

[6] = test system: rats; assay: Antipyretic activity, E. coli suspension as pyrogen; type: in vivo; settings: in °C (unit assumed)
Protocol: Rats are administered with sterilized E. coli suspension as a pyrogen. Each group of rats are administered with a prodrug compounds or parent compounds at a dosage specified below. The prodrug compounds are administered either orally or transdermally. The parent compounds are administered orally.

[7] = test system: rats (SLAC/GK, type 2 diabetes); assay: Blood lipid in type 2 diabetes rats, transdermal; type: in vivo, rat
From the text: (§1) HPPs lower blood glucose level in rat models (SLAC/GK, type 2 diabetes, n=7). 50% acetone solution of diethylaminoethyl acetylsalicylate.acetylsalicylic acid salt (P-1, in acetone); 4-acetamidophenyl salicylyldimethylaminobutyrate.HCl (P-6), diethylaminoethyl 5-(2,4-difluorophenyl) acetylsalicylate.5-(2,4-difluorophenyl).acetylsalicylic acid salt (P-8), diethylaminoethyl salicylsalicylate.AcOH (P-9), diethylaminoethyl salicylate.AcOH (P-10), diethylaminoethyl 5-acetamido-acetylsalicylate (P-58), diethylaminoethyl acetylsalicylsalicylate.acetylsalicylsalicylic acid salt (P-59), diethylaminoethyl acetylsalicylsalicylate.acetylsalicylsalicylsalicylic acid salt (P-60) (equal to of 20 mg/kg of NSAIAs) are administered transdermally to the backs (about 1.5 cm^2) of rats (fur was shaved) once per day (at 8 am) for 5 weeks. The blood glucose levels are measured once every 3 days at 3 pm (no fasting) from the second week to the fifth week (Table 24). The blood lipid levels are measured at the end of the fifth week (Table 25).

[8] = test system: mice (SLAC:NOD-IDDM, type 1 diabetes); assay: Blood glucose in type 1 diabetes mice, transdermal; type: in vivo, mouse
From the text: The pro-drugs in this invention lower blood glucose levels in mouse models (SLAC:NOD-IDDM, type 1 diabetes, n=7). 50% acetone solution of diethylaminoethyl acetylsalicylate.acetylsalicylic acid salt (P-1, in acetone); 4-acetamidophenyl salicylyldimethylaminobutyrate.HCl (P-6), diethylaminoethyl 5-(2,4-difluorophenyl) acetylsalicylate.5-(2,4-difluorophenyl) acetylsalicylic acid salt (P-8), diethylaminoethyl salicylsalicylate.AcOH (P-9), diethylaminoethyl salicylate.AcOH (P-10), diethylaminoethyl 5-acetamido-acetylsalicylate (P-58), diethylaminoethyl acetylsalicylsalicylate. acetylsalicylsalicylic acid salt (P-59), diethylaminoethyl acetylsalicylsalicylate. acetylsalicylsalicylsalicylic acid salt (P-60) (equal to of 30 mg/kg of NSAIAs) were administered transdermally to the backs (about 1.5 cm^2) of mice (fur was shaved) once per day (at 8 am) for 7 weeks. The blood glucose levels were measured once every 3 days at 3 pm (no fasting) from the fourth week to the seventh week.

[9] = test system: rats (SLAC/GK, type 2 diabetes); assay: Blood lipid in type 2 diabetes rats, oral with food; type: in vivo, rat
From the text: (§2) 20% acetone solution of diethylaminoethyl acetylsalicylate.acetylsalicylic acid salt (P-1, in acetone); 4-acetamidophenyl salicylyldimethylaminobutyrate.HCl (P-6), diethylaminoethyl 5-(2,4-difluorophenyl) acetylsalicylate.5-(2,4-difluorophenyl) acetylsalicylic acid salt (P-8), diethylaminoethyl salicylsalicylate.AcOH (P-9), diethylaminoethyl salicylate.AcOH (P-10), diethylaminoethyl 5-acetamido-acetylsalicylate (P-58), diethylaminoethyl acetylsalicylsalicylate. acetylsalicylsalicylic acid salt (P-59), diethylaminoethyl acetylsalicylsalicylate. acetylsalicylsalicylsalicylic acid salt (P-60) (equal to of 20 mg/kg of NSAIAs) were mixed with food and were orally administered to the rats (SLAC/GK, type 2 diabetes, n=7) with food every day for 5 weeks. The blood glucose levels were measured once every 3 days at 3 pm (no fasting) from the second week to the fifth week. The blood lipid levels were measured at the end of the fifth week.

[10] = test system: normal rats; assay: Blood glucose in normal rats, oral with food; type: in vivo, rat
[11] = test system: rats (SLAC/GK, type 2 diabetes); assay: Blood glucose in type 2 diabetes rats, transdermal; type: in vivo, rat; settings: diabetic rats (SLAC/GK)
From the text: as §1

[12] = test system: rats (SLAC/GK, type 2 diabetes); assay: Blood glucose in type 2 diabetes rats, oral with food; type: in vivo, rat
From the text: as §2

[13] = test system: normal rats; assay: Blood glucose in normal rats, transdermal; type: in vivo, rat
From the text: as §1, with “25). […]” for “25).”

[14] = baseline, equal to 20 mg/kg of NSAIAs
[15] = end of the fifth week, equal to 20 mg/kg of NSAIAs once per day
[16] = end of the fifth week, equal to 20 mg/kg of NSAIAs every day
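For LD50 in this document: acute toxicity in rats expressed as LD50, determined for both prodrugs and their parent compounds.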

In the case of `CC(=O)Oc1ccccc1C(=O)O` [Aspirin, acetylsalicylic acid, reference compound], the “In vitro penetration rate (apparent flux), parent compounds” value (from here on “In vitro penetration rate”) [1] is reported as <1 μg/cm^2/h, the LD50 [2] is reported as 1500 mg/kg and the solubility [3] is reported as 10 µg/mL (≈ 55.5 µM). The “t, time to peak plasma level after parent compound” value (shortened to “t, time to peak plasma level”) [4] was ~2 h, the “Peak plasma concentration after parent compound” value (shortened to “Peak plasma concentration”) [4] was 0.1 mg/L and the “No. of Writhing” value ([5]; 50 mg/kg orally) was 18.2. For the same compound, the “No. of Writhing” value ([5]; 100 mg/kg orally) was 13.2, the inhibition at 50 mg/kg ([5]; 50 mg/kg orally) was 45% and the inhibition at 100 mg/kg ([5]; 100 mg/kg orally) was 60%. The “body temperature, t = 0 min” value ([6]; 100 mg/kg orally) was 37.22 ± 0.05, the “body temperature, t = 90 min” value ([6]; 100 mg/kg orally) was 36.80 ± 0.05 and the “body temperature, t = 180 min” value ([6]; 100 mg/kg orally) was 36.85 ± 0.05. The “body temperature, t = 270 min” value ([6]; 100 mg/kg orally) was 36.81 ± 0.05, the “body temperature, t = 0 min” value ([6]; 150 mg/kg orally) was 37.30 ± 0.06 and the “body temperature, t = 90 min” value ([6]; 150 mg/kg orally) was 36.50 ± 0.05. The “body temperature, t = 180 min” value ([6]; 150 mg/kg orally) was 36.59 ± 0.05 and the “body temperature, t = 270 min” value ([6]; 150 mg/kg orally) was 36.55 ± 0.05.

With `O=C(O)c1cc(-c2ccc(F)cc2F)ccc1O` [Diflunisal, 5-(2,4-difluorophenyl) salicylic acid, reference compound] the “In vitro penetration rate” value [1] was <1 μg/cm^2/h, the LD50 [2] was 500 mg/kg and the solubility [3] was 50 µg/mL (≈ 200 µM). The “t, time to peak plasma level” value [4] was 1 to 2 h, the “Peak plasma concentration” value [4] was 0.2 mg/L and the “No. of Writhing” value ([5]; 50 mg/kg orally) was 18.1. The “No. of Writhing” value ([5]; 100 mg/kg orally) was 13.2, the inhibition at 50 mg/kg ([5]; 50 mg/kg orally) was 48% and the inhibition at 100 mg/kg ([5]; 100 mg/kg orally) was 62%. For the same compound, the “body temperature, t = 0 min” value ([6]; 100 mg/kg orally) was 37.25 ± 0.06, the “body temperature, t = 90 min” value ([6]; 100 mg/kg orally) was 36.81 ± 0.05 and the “body temperature, t = 180 min” value ([6]; 100 mg/kg orally) was 36.82 ± 0.08. For the same compound, the “body temperature, t = 270 min” value ([6]; 100 mg/kg orally) was 36.78 ± 0.07, the “body temperature, t = 0 min” value ([6]; 150 mg/kg orally) was 37.35 ± 0.09 and the “body temperature, t = 90 min” value ([6]; 150 mg/kg orally) was 36.61 ± 0.07. For the same compound, the “body temperature, t = 180 min” value ([6]; 150 mg/kg orally) was 36.56 ± 0.06 and the “body temperature, t = 270 min” value ([6]; 150 mg/kg orally) was 36.57 ± 0.05.

With `CC(C(=O)O)c1cccc(Oc2ccccc2)c1` (centres unmarked) [Fenoprofen, 2-(3-phenoxyphenyl) propionic acid, reference compound] the “In vitro penetration rate” value [1] was <1 μg/cm^2/h, the LD50 [2] was 800 mg/kg and the solubility [3] was 100 µg/mL (≈ 413 µM). The “t, time to peak plasma level” value [4] was 1 to 2 h, the “Peak plasma concentration” value [4] was 1 mg/L and the “No. of Writhing” value ([5]; 50 mg/kg orally) was 13.2. For the same compound, the inhibition at 50 mg/kg ([5]; 50 mg/kg orally) was 62%, the “body temperature, t = 0 min” value ([6]; 50 mg/kg orally) was 37.22 ± 0.07 and the “body temperature, t = 90 min” value ([6]; 50 mg/kg orally) was 36.82 ± 0.06. For the same compound, the “body temperature, t = 180 min” value ([6]; 50 mg/kg orally) was 36.80 ± 0.05 and the “body temperature, t = 270 min” value ([6]; 50 mg/kg orally) was 36.77 ± 0.08.

For `O=C(O)c1cccnc1Nc1cccc(C(F)(F)F)c1` [Niflumic acid, niflumic acid], the “In vitro penetration rate” value [1] was 10 μg/cm^2/h, the LD50 [2] was 650 mg/kg and the solubility [3] was < 100 µg/mL. The “t, time to peak plasma level” value [4] was 2 to 4 h and the “Peak plasma concentration” value [4] was 0.1 mg/L.

With `CC(=O)Nc1ccc(OC(=O)c2ccccc2OC(=O)CCCN(C)C)cc1.Cl` [P-6] the “Cholesterol (HDL), Baseline” value [7, 14] was 1.3 ± 0.1 mmol/L, the “Cholesterol (total), Baseline” value [7, 14] was 7.3 ± 0.5 mmol/L and the “Triglycerides, Baseline” value [7, 14] was 5.3 ± 0.5 mmol/L. For the same compound, the “Cholesterol (HDL), Average” value [7, 15] was 1.3 ± 0.2 mmol/L, the “Cholesterol (total), Average” value [7, 15] was 4.7 ± 0.4 mmol/L and the “Triglycerides, Average” value [7, 15] was 2.3 ± 0.2 mmol/L. For the same compound, the “Blood glucose, Average” value ([8]; average fourth to seventh week, no fasting, equal to 30 mg/kg of NSAIAs once per day for 7 weeks) was 9.5 ± 2 mmol/L, the “Blood glucose, Baseline” value ([8]; baseline, equal to 30 mg/kg of NSAIAs) was 27.7 ± 4 mmol/L and the “Cholesterol (HDL), Baseline” value [9, 14] was 1.5 ± 0.1 mmol/L. The “Cholesterol (total), Baseline” value [9, 14] was 7.5 ± 0.4 mmol/L, the “Triglycerides, Baseline” value [9, 14] was 5.5 ± 0.5 mmol/L and the “Cholesterol (HDL), Average” value [9, 16] was 1.4 ± 0.2 mmol/L. For the same compound, the “Cholesterol (total), Average” value [9, 16] was 4.9 ± 0.4 mmol/L, the “Triglycerides, Average” value [9, 16] was 1.8 ± 0.2 mmol/L and the “Blood glucose, Normal rats, Average” value ([10]; average second to fifth week, equal to 20 mg/kg of NSAIAs every day) was 6.4 ± 1 mmol/L. For the same compound, the “Blood glucose, Normal rats, Baseline” value [10, 14] was 6.5 ± 1 mmol/L, the “Blood glucose, Average” value ([11]; average second to fifth week, no fasting, equal to 20 mg/kg of NSAIAs once per day for 5 weeks) was 8.5 ± 2 mmol/L and the “Blood glucose, Baseline” value ([11]; baseline, equal to 20 mg/kg of NSAIAs once per day) was 16.7 ± 4 mmol/L. For the same compound, the “Blood glucose, Diabetic rats, Average” value ([12]; average second to fifth week, no fasting, equal to 20 mg/kg of NSAIAs every day for 5 weeks) was 7.5 ± 2 mmol/L, the “Blood glucose, Diabetic rats, Baseline” value [12, 14] was 16.1 ± 4 mmol/L and the “Blood glucose, Average” value ([13]; normal rats (second Average line of Table 24), average second to fifth week, equal to 20 mg/kg of NSAIAs once per day) was 6.5 ± 1 mmol/L. For the same compound, the “Blood glucose, Baseline” value ([13]; normal rats (second Baseline line of Table 24), baseline, equal to 20 mg/kg of NSAIAs) was 6.8 ± 1 mmol/L.

For `CN1C(C(=O)Nc2ccccn2)=C(O)c2ccccc2S1(=O)=O` [Piroxicam, piroxicam], the “In vitro penetration rate” value [1] was <1 μg/cm^2/h, the LD50 [2] was 360 mg/kg and the solubility [3] was < 100 µg/mL. For the same compound, the “t, time to peak plasma level” value [4] was 2 to 4 h and the “Peak plasma concentration” value [4] was 0.1 mg/L.

With `CC(C(=O)O)c1ccc2c(c1)Cc1cccnc1O2` (centres unmarked) [Pranoprofen, pranoprofen] the “In vitro penetration rate” value [1] was 30 μg/cm^2/h, the LD50 [2] was 450 mg/kg and the solubility [3] was 200 µg/mL (≈ 783 µM). For the same compound, the “t, time to peak plasma level” value [4] was 2 to 4 h and the “Peak plasma concentration” value [4] was 10 mg/L.

With `Cc1ccc(C(=O)c2ccc(CC(=O)O)n2C)cc1` [Tolmetin, tolmetin] the “In vitro penetration rate” value [1] was 10 μg/cm^2/h, the LD50 [2] was 350 mg/kg and the solubility [3] was 200 µg/mL (≈ 777 µM). For the same compound, the “t, time to peak plasma level” value [4] was 1 to 2 h and the “Peak plasma concentration” value [4] was 0.1 mg/L.

In the case of `Cc1cc(CC(=O)O)n(C)c1C(=O)c1ccc(Cl)cc1` [Zomepirac, zomepirac], the “In vitro penetration rate” value [1] is reported as 10 μg/cm^2/h, the LD50 [2] is reported as 27 mg/kg and the solubility [3] is reported as 200 µg/mL (≈ 686 µM). The “t, time to peak plasma level” value [4] was 1 to 2 h and the “Peak plasma concentration” value [4] was 0.1 mg/L.

From patent US20210353579A1, “HIGH PENETRATION COMPOSITIONS AND USES THEREOF” (Techfields Pharma Co., Ltd., priority 2006, published 2021)
